These results are taken from patent US11718605B2, “Heterocyclic compounds as immunomodulators” (Incyte Corporation, priority 2016, dated 2023).

As usually defined, the IC50 is the concentration that gives 50% inhibition.

This assay addresses PD-1/PD-L1 protein/protein interaction (Homo sapiens (Human), UniProt Q9NZQ7). Briefly: PD-1/PD-L1 Homogeneous Time-Resolved Fluorescence (HTRF) Binding Assay. Particulars: recombinant human PD-L1 (19-238) His-tag 10 nM, human PD-1 (25-167) Fc tag 3 nM; 25° C., PBS pH 7.4. The procedure: Example A. PD-1/PD-L1 Homogeneous Time-Resolved Fluorescence (HTRF) Binding Assay
The assays were conducted in a standard black 384-well polystyrene plate with a final volume of 20 μL. Inhibitors were first serially diluted in DMSO and then added to the plate wells before the addition of other reaction components. The final concentration of DMSO in the assay was 1%. The assays were carried out at 25° C. in the PBS buffer (pH 7.4) with 0.05% Tween-20 and 0.1% BSA. Recombinant human PD-L1 protein (19-238) with a His-tag at the C-terminus was purchased from AcroBiosystems (PD1-H5229). Recombinant human PD-1 protein (25-167) with Fc tag at the C-terminus was also purchased from AcroBiosystems (PD1-H5257). PD-L1 and PD-1 proteins were diluted in the assay buffer and 10 μL was added to the plate well. Plates were centrifuged and proteins were preincubated with inhibitors for 40 minutes. The incubation was followed by the addition of 10 μL of HTRF detection buffer supplemented with Europium cryptate-labeled anti-human IgG (PerkinElmer-AD0212) specific for Fc and anti-His antibody conjugated to SureLight®-Allophycocyanin (APC, PerkinElmer-AD0059H). After centrifugation, the plate was incubated at 25° C. for 60 min. before reading on a PHERAstar FS plate reader (665 nm/620 nm ratio). Final concentrations in the assay were—3 nM PD1, 10 nM PD-L1, 1 nM europium anti-human IgG and 20 nM anti-His-Allophycocyanin. IC50 determination was performed by fitting the curve of percent control activity versus the log of the inhibitor concentration using the GraphPad Prism 5.0 software.
(In general: TR-FRET usually uses a lanthanide donor and a delayed reading to cut background.)

Structures are written as SMILES.

Chain of PD-1/PD-L1 protein/protein interaction (Q9NZQ7 19-238): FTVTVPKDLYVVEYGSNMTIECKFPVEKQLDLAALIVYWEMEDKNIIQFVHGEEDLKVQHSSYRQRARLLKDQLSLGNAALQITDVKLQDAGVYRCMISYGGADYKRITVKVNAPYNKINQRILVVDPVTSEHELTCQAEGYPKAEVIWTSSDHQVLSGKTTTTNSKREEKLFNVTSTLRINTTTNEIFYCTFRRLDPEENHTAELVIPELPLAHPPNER

On to `Cn1cc(CNCCO)cc(C(=O)Nc2cccc(-c3cccc4c3cnn4C)c2C#N)c1=O` [Example 8, N-(2-cyano-3-(1-methyl-1H-indazol-4-yl)phenyl)-5-((2-hydroxyethylamino)methyl)-1-methyl-2-oxo-1,2-dihydropyridine-3-carboxamide], for which the IC50 is no more than 100 nM.

On to `Cc1c(NC(=O)c2cc(CNCCO)cn(C)c2=O)cccc1-c1ccccc1` [Example 2, 5-{[(2-hydroxyethyl)amino]methyl}-1-methyl-N-(2-methylbiphenyl-3-yl)-2-oxo-1,2-dihydropyridine-3-carboxamide], for which the IC50 is no more than 100 nM.

As to `COc1cccc(-c2cccc(NC(=O)c3cc(CNCCO)cn(C)c3=O)c2C)c1F` [Example 12, N-(2′-fluoro-3′-methoxy-2-methylbiphenyl-3-yl)-5-((2-hydroxyethylamino)methyl)-1-methyl-2-oxo-1,2-dihydropyridine-3-carboxamide], the IC50 is no more than 100 nM.

On to `Cc1c(NC(=O)c2cc(CN3CCCC[C@H]3C(=O)O)cn(C)c2=O)cccc1-c1ccccc1` [Example 1, (2S)-1-[(1-methyl-5-{[(2-methylbiphenyl-3-yl)amino]carbonyl}-6-oxo-1,6-dihydropyridin-3-yl)methyl]piperidine-2-carboxylic acid], for which the IC50 is no more than 100 nM.

For the molecule `CCn1cc(CN2CCCC[C@H]2C(=O)O)cc(C(=O)Nc2cccc(-c3ccccc3)c2C)c1=O` [Example 9, (2S)-1-[(1-ethyl-5-{[(2-methylbiphenyl-3-yl)amino]carbonyl}-6-oxo-1,6-dihydropyridin-3-yl)methyl]piperidine-2-carboxylic acid], the IC50 lay within 500 to 10000 nM.

As for `Cn1cc(CNCCO)cc(C(=O)Nc2cccc(-c3ccc4c(c3)OCCO4)c2C#N)c1=O` [Example 4, N-[2-cyano-3-(2,3-dihydro-1,4-benzodioxin-6-yl)phenyl]-5-{[(2-hydroxyethyl)amino]methyl}-1-methyl-2-oxo-1,2-dihydropyridine-3-carboxamide], the IC50 is no more than 100 nM.

In the case of `Cc1c(NC(=O)c2cc(CNCCO)cn(C)c2=O)cccc1-c1ccc2c(c1)OCCO2` [Example 13, N-[3-(2,3-dihydro-1,4-benzodioxin-6-yl)-2-methylphenyl]-5-{[(2-hydroxyethyl)amino]methyl}-1-methyl-2-oxo-1,2-dihydropyridine-3-carboxamide], the IC50 was no more than 100 nM.

For the molecule `Cn1cc(CNCCO)cc(C(=O)Nc2cccc(C3CCCCC3)c2C#N)c1=O` [Example 3, N-(2-cyano-3-cyclohexylphenyl)-5-{[(2-hydroxyethyl)amino]methyl}-1-methyl-2-oxo-1,2-dihydropyridine-3-carboxamide], the IC50 was 100 to 500 nM.

Turning to `CCn1cc(CNCCO)cc(C(=O)Nc2cccc(-c3ccccc3)c2C)c1=O` [Example 10, 1-ethyl-5-{[(2-hydroxyethyl)amino]methyl}-N-(2-methylbiphenyl-3-yl)-2-oxo-1,2-dihydropyridine-3-carboxamide], the IC50 lay in the range of 100 to 500 nM.

For `Cn1cc(CNCCO)cc(C(=O)Nc2cccc(-c3ccccc3)c2C#N)c1=O` [Example 7, N-(2-cyanobiphenyl-3-yl)-5-{[(2-hydroxyethyl)amino]methyl}-1-methyl-2-oxo-1,2-dihydropyridine-3-carboxamide], the IC50 was in the range of 100 to 500 nM.

For `COc1cccc(-c2cccc(NC(=O)c3cc(CNCCO)cn(C)c3=O)c2C#N)c1` [Example 5, N-(2-cyano-3′-methoxybiphenyl-3-yl)-5-{[(2-hydroxyethyl)amino]methyl}-1-methyl-2-oxo-1,2-dihydropyridine-3-carboxamide], the IC50 was no more than 100 nM.

As for `Cc1c(NC(=O)c2cc(CNCCO)cn(C)c2=O)cccc1-c1cccc2c1cnn2C` [Example 11, 5-{[(2-hydroxyethyl)amino]methyl}-1-methyl-N-[2-methyl-3-(1-methyl-1H-indazol-4-yl)phenyl]-2-oxo-1,2-dihydropyridine-3-carboxamide], the IC50 was no more than 100 nM.

On to `Cn1cc(CNCCO)cc(C(=O)Nc2cccc(-c3ccccc3F)c2C#N)c1=O` [Example 6, N-(2-cyano-2′-fluorobiphenyl-3-yl)-5-{[(2-hydroxyethyl)amino]methyl}-1-methyl-2-oxo-1,2-dihydropyridine-3-carboxamide], for which the IC50 was no more than 100 nM.
